Measurements from patent publication US9572827B2, “Pharmaceutical composition for treating depression and method for preparation thereof” (Beijing Wonner Biotech, Ltd. Co., priority 2005, dated 2017).

Legend:
ICR mice [1] = assay: Body temperature decrease experiment induced by resetpine; type: in vivo; conditions: 16.7 mg/kg, 2 times per day for 7 days
Description: Experiment 2: Body Temperature Decrease Experiment Induced by Resetpine
Experimental animal: ICR mice
Experimental pharmaceuticals: The pharmaceutical of the Embodiment 3 of the present invention is provided by Beijing Wonner Biotech Ltd. Co., the depression-relieving pill is the product of Zhengzhou Yumi Medicines Co. Ltd., and Paroxitine (Paxil) is the product of Zhong Mei Tianjin Smith Kline pharmaceuticals Co. Ltd.
I. Group division: 1. Large dose of the Embodiment 3 medicine of the present invention (188.5 mg/kg), 2. middle dose of the Embodiment 3 medicine of the present invention (94.25 mg/kg), 3. small dose of the Embodiment 3 medicine of the present invention (47.125 mg/kg), 4. depression-reliving pill (650 mg/kg), 5. Paroxitine (16.7 mg/kg), and 6. physiological saline. (Ten (10) mice are in each group.)
II. Administration of drug: the abovementioned pharmaceutical water solutions are fed into the stomach according to 0.2 ml/10 g body weight, 2 times per day for a total of 7 days.
III. After the last administration of drug, the anal temperature (abbreviated as anal temp.) is determined, and then 2 mg resetpine per kg of the body weight is taken by intraperitoneal injection. After injecting the resetpine for 2, 3, 4, 5, 6 and 7 hours respectively, the anal temperature of the mice are determined.
The variance analysis calculation and the p-value compared with the control of the experimental result are calculated by using SPSS 11.5 analytic software.

ICR mice [2] = assay: Mouse tail-hanging experiment; type: in vivo; conditions: 16.7 mg/kg, fed into the stomach 2 times per day for 7 days; 1 hour after last administration; last 5 of 6 minutes
Procedure: Experiment 1: “Mouse Tail-Hanging” Experiment Experimental animal: ICR mice Experimental pharmaceuticals: The pharmaceutical of the Embodiment 3 of the present invention is provided by Beijing Wonner Biotech Ltd. Co., the depression-relieving pill is the product of Zhengzhou Yumi Medicines Co. Ltd., and Paroxitine (Paxil) is the product of Zhong Mei Tianjin Smith Kline pharmaceuticals Co. Ltd. I. Group division: 1. Large dose of the Embodiment 3 medicine of the present invention (188.5 mg/kg), 2. middle dose of the Embodiment 3 medicine of the present invention (94.25 mg/kg), 3. small dose of the Embodiment 3 medicine of the present invention (47.125 mg/kg), 4. depression-reliving pill (650 mg/kg), 5. Paroxitine (16.7 mg/kg), and 6. physiological saline. (Ten (10) mice are in each group.) II. Administration of drug: The abovementioned pharmaceutical water solutions are fed into the stomach according to 0.2 ml/10 g body weight, 2 times per day for a total of 7 days. After 1 hour of the last administration of drug, the mouse tail-hanging experiment is proceeded. III. […] The time of non-movement of the mouse for the last 5 minutes is recorded. The variance analysis calculation and the p-value compared with the control of the experimental result are calculated by using SPSS 11.5 analytic software.

Which results are given for `Fc1ccc([C@@H]2CCNC[C@H]2COc2ccc3c(c2)OCO3)cc1` [Paroxitine]?
Decreased anal temp. for 2 hr (ICR mice [1]; 2 hr after resetpine 2 mg/kg i.p.): 1.29 ± 0.47 °C; Decreased anal temp. for 3 hr (ICR mice [1]; 3 hr after resetpine 2 mg/kg i.p.): 1.08 ± 0.35 °C; Decreased anal temp. for 4 hr (ICR mice [1]; 4 hr after resetpine 2 mg/kg i.p.): 1.55 ± 0.64 °C; Decreased anal temp. for 5 hr (ICR mice [1]; 5 hr after resetpine 2 mg/kg i.p.): 1.44 ± 0.32 °C; Decreased anal temp. for 6 hr (ICR mice [1]; 6 hr after resetpine 2 mg/kg i.p.): 2.51 ± 0.47 °C; Decreased anal temp. for 7 hr (ICR mice [1]; 7 hr after resetpine 2 mg/kg i.p.): 2.76 ± 0.59 °C; Time of non-movement (ICR mice [2]): 54.98 ± 46.92 s
